# Experimental data taken from US20230000869A1, “NOVEL ALK2 INHIBITORS AND METHODS FOR INHIBITING BMP SIGNALING” (The Brigham and Women's Hospital, Inc., priority 2017, published 2023).
# Substitutions are numbered along the chain they refer to.
# How the values were obtained:
# ALK2 [1] = target: T1, ALK2 (Mus musculus, UniProt P37172); assay: Luciferase reporter gene assay for ALK2 activity (C2C12 BRE-Luc SMAD1/5/8 reporter, BMP6 agonist); assay type: cell-based; details: BMP6 50 ng/mL
# T1 construct: endogenous in cells; host or cells: C2C12-BRE (BRE-Luc reporter line, G418 selection)
# T1 sequence (P37172 21-509): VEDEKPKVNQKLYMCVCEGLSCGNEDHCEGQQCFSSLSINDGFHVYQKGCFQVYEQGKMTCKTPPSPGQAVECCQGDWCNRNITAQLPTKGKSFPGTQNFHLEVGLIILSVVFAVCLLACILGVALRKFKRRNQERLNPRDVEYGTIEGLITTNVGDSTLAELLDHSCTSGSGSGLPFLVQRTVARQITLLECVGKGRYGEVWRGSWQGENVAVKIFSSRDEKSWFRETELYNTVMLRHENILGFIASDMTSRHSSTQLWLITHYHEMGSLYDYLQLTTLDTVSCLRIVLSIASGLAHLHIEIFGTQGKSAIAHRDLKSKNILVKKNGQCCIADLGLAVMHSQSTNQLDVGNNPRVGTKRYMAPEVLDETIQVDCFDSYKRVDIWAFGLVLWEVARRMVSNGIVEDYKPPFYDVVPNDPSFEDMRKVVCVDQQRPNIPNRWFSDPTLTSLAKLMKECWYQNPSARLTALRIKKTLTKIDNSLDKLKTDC
# Procedure, shortened: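 TGFβ activity was measured in HEK293T SBE-Luc cells stimulated with 5 ng/mL TGFβ, at compound 10000-30 nM final. ALK2 activity was measured in C2C12 BRE-Luc cells stimulated with 50 ng/mL BMP6, at compound 1000-0.3 nM final. Compound was preincubated 45 min in 2% FBS medium; after ≥18 h agonist exposure, luminescence was read and inhibition expressed as % signal loss versus background-subtracted agonist controls.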
# ALK2 [2] = target: T2, ALK2 (Homo sapiens, UniProt Q04771); assay: TR-FRET enzymatic assay, ALK2 kinase, 1536-well; assay type: biochemical; details: for IC50 / ALK2 Span: TR-FRET; for IC50: 10 nM ALK, Ulight topo II substrate 50 nM, ATP 10 uM (Table 1); for ALK2 Span: span of the concentration-response curve
# T2 construct: purchased Life technology (Fredrick, Md.) and/or CARNA BIOSCIENCES Inc. (Kobe, Japan)
# T2 sequence (Q04771 21-509): T1 sequence (P37172 21-509) with V1M, Q10P, I121L, E162D, S310P
# Text: We have developed six ALK kinase enzyme assays for determination of compound activities on ALK1, ALK2, ALK3, ALK4, ALK5 and ALK6. For the assay development, we had tested a number of substrates and assay conditions that led to the final optimized assay protocols with good assay windows with signal to basal (S/B) ratios above 20 fold for all six ALK assays (FIG. 1). In our knowledge, these ALK kinase assays have not been reported elsewhere.
# ALK1 and ALK2-ALK6 were obtained from Life technology (Fredrick, Md.) and CARNA BIOSCIENCES Inc. (Kobe, Japan). Ulight-DNA Topoisomerase 2 alpha (Thr-1342) peptide and Europium anti-phospho-DNA Topoisomerase 2 alpha (Thr-1342) antibody was from Perkin Elmer Inc. The kinase buffer was composed of 50 mM HEPES pH7.0, 10 mM MgCl2, 3 mM MnCl2, 0.005% Tween-20 and 2 mM DTT. The compound plates and the white solid MB assay plates were purchased from Greiner Bio-one (Monroe, N.C.).
# The binding of Eu-anti-phospho-peptide antibody to the phosphorylated Ulight peptide substrate bring both Eu donor and Ulight acceptor dye into close proximity. Upon excitation at 320-340 nm, the emission energy from Eu donor is transferred to Ulight acceptor dye that will generate light at 665 nm. The intensity light emission is proportional to the level of the peptide phosphorylation by ALKs. The assay was optimized and performed in 1536 plate (Table 1). Briefly, the ALKs enzymatic assay was initiated by dispense 2.5 ul enzyme with a final concentration at 10 nM prepared in 1× kinase reaction buffer. The assay plate was then added with compounds with the Pintool station (23 nl/well compound dilutions in DMSO solution) that was followed by incubation at room temperature for 10 minutes. Then 2.5 ul/well substrate was added in which 50 nM peptide substrate mixed with 10 uM, 100 uM or 1 mM ATP (final concentration). The assay plate was incubated at room temperature for 60 minutes and the kinase reaction was stopped by addition of 5 ul/well of 4 nM Eu-anti-phospho-peptide antibody with 12 mM EDTA prepared in 1× detection buffer. The assay plate was measured in an EnVision plate reader (Perkin Elmer) in the TR-FRET detection mode (excitation at 340 nm and emission at 665 nm).
IC50 (ALK2 [1]) [nM],IC50 (ALK2 [2]) [nM],ALK2 Span (ALK2 [2]),SMILES,"activity in ALK2 in the presence of 10, 100, or 1,000 uM ATP (ALK2 [2]; FIG. 3, ATP 10 uM versus 100 uM or 1 mM)"
5,54.3,109.4,Cc1cc(-c2cnn3cc(N4CCC(N5CCN(C)CC5)CC4)cnc23)c2ccccc2n1 [Compound 8],–
–,–,–,c1ccc2c(-c3cnn4cc(-c5ccc(N6CCNCC6)cc5)cnc34)ccnc2c1 [TRND00262637-13],activity reduced in the higher ATP concentrations
54,111,~117.5,Cc1cc(-c2cnn3cc(N4CCC(N5CCOCC5)CC4)cnc23)c2ccccc2n1 [Compound 11],–
37,178,~117.8,Cc1cc(-c2cnn3cc(N4CCC(N5CCNCC5)CC4)cnc23)c2ccccc2n1 [Compound 34],–
19,102,~117.8,"COc1cc2c(-c3cnn4cc(N5CCC(N6CCN(C)CC6)CC5)cnc34)ccnc2cc1F [Compound 15, 7-fluoro-6-methoxy-4-(6-(4-(4-methylpiperazin-1-yl)piperidin-1-yl)pyrazolo[1,5-a]pyrimidin-3-yl)quinoline]",–
